Source: patent US12128035B2, “Activating pyruvate kinase R” (Novo Nordisk Health Care AG, priority 2021, dated 2024)
Where “and” joins values, the source holds several entries; their conditions need not be identical. Equal entries are not always repeated.

Tests used:
[1] = target: T1, PKR in mouse red blood cells (Mus musculus, UniProt P53657); assay: Cell assay: PKR activation in mouse RBCs; assay type: cell-based
T1 construct: endogenous in cells; host or cells: mouse RBCs freshly isolated from whole blood
T1 sequence (P53657 whole entry): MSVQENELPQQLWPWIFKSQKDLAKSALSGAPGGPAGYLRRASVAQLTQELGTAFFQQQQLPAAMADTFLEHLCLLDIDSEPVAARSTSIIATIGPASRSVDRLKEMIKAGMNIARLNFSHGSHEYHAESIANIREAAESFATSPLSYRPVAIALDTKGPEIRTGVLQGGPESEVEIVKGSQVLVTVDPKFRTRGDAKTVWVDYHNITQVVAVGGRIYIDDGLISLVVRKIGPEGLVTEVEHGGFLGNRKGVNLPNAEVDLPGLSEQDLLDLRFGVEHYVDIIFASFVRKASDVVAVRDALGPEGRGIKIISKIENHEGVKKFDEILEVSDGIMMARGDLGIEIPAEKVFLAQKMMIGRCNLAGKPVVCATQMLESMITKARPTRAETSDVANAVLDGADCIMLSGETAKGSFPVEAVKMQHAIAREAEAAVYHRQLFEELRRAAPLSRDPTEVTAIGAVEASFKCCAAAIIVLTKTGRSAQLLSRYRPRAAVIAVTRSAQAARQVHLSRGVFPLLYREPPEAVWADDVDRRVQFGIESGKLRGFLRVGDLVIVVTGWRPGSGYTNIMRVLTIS
Source text: Mouse RBCs were isolated fresh from whole blood using a Ficoll gradient and assayed with methods similar to those used in the human RBCs assays.

[2] = system: Red blood cells from SCD patients; assay: Ex vivo Hgb oxygen equilibrium curves in SCD RBCs; assay type: cell-based, human; conditions: 10 μM
Protocol: (§1) Red blood cells from SCD patients were used to evaluate the effects of Compound 1 on Hgb affinity for oxygen (i.e., oxygen affinity) and sickling under hypoxic conditions. Cells were incubated at 37° C. for 1, 2, and 3 hr with HEPES buffered saline (HBS) (untreated), HBS+dimethyl sulfoxide (DMSO) (vehicle), or 10 μM Compound 1. To assess oxygen dissociation, Hgb oxygen equilibrium curves were collected during deoxygenation.

Human SCD cells = assay: Ex vivo sickling under hypoxic conditions; assay type: cell-based; conditions: for Net % of Sickled Cells / % Protection: 10 μM
Protocol: as §1
Compound 1 (10 μM) reduced cell sickling under severe hypoxic conditions of 2% oxygen (PO2 of <20 mmHg) for up to 20 min (Table 8).

2,3-DPG blood levels = assay: Phase 1: blood 2,3-DPG in SCD patients; assay type: in vivo, human
Protocol: In this study, SAD/MAD cohorts are randomized (3 to 1) to receive Compound 1 or placebo (P). Compound 1 was evaluated first in 4 healthy SAD cohorts and 4 healthy MAD (14-day dosing period) cohorts. Based on the safety, and PK/PD profile from HS, Compound 1 is then evaluated in 1 SCD SAD cohort and 2 SCD MAD cohorts. Specifically, based on the safety and pharmacokinetic/pharmacodynamics (PK/PD) profile in healthy volunteer studies, Compound 1 is evaluated in patients (pts) with SCD, first in a single dose (SD or SAD) cohort and then in multiple-dose (MD or MAD) cohorts (14-day and 12-week). Safety assessments include AEs, vital signs, ECGs and laboratory parameters. PK/PD blood sampling was performed on Day 1 (SAD/MAD) and Day 14 (MAD) and up to 72 h after the last dose and at the end-of-study visit. PD parameters included 2,3-DPG, ATP, and p50 in all cohorts with additional PD studies (including oxygen scan) performed only in the SCD cohorts. PD parameters included 2,3-DPG, ATP, p50, RBC deformability with controlled deoxygenation and reoxygenation (Lorrca® oxygen scan) and varying osmolality (Lorrca® osmoscan)). To maintain study blind, pt identifiers were removed when needed.
The onset of the increase in ATP blood levels after a single 700 mg dose of Compound 1 was faster in SCD patients than in healthy volunteers, while the onset of the decrease in 2,3-DPG blood levels was slower.
The following procedures are employed for the analysis of ATP and 2,3-DPG in human whole blood K2EDTA using a protein precipitation extraction procedure and analysis by LC-MS/MS.
The following procedures are used for sample extraction prior to analysis via LC-MS/MS. 15.0 μL of the calibration standards, quality controls, matrix blanks, and samples are aliquoted into a 96-well plate. 50.0 μL of the internal standard spiking solution is added to all samples on the plate, with the exception of the matrix blank samples; 50.0 μL of water is added to the matrix blank samples. Subsequently, 150 μL of water is added to all samples on the plate. The plate is then covered and agitated by vortex at high speed for ten minutes, after which 750 μL of methanol is added to all samples on the plate. The plate is covered and agitated by vortex for approximately 1 minute. The plate is then centrifuged at approximately 3500 RPM at approximately 4° C. for five minutes. After centrifugation, a liquid handler is used to transfer 50 μL of each sample to a new 96-well plate, and 200 μL of acetonitrile is added to all samples on the plate. The newly prepared plate is covered and agitated by vortex for approximately 1 minute. The plate is then centrifuged at approximately 3500 RPM at approximately 4° C. for 2 minutes.

SMILES: O=C([C@H](CO)c1ccccc1)N1CC2=C(C1)CN(S(=O)(=O)c1cnc3c(c1)OCCO3)C2 (single isomer, unassigned) [Compound 1]
- Max − Min (%), Mean ([1]; mean of replicates): <100%
- Max − Min (%) ([1]; single replicates): <50% and <100%
- Hgb saturation higher compared to DMSO-treated cells ([2]; 2 hr): approximately 10%
- p50 ([2]; after 1 hr, shifted from 29 mmHg): 25 mmHg
- Hemoglobin Saturation ([2]; incubation 1 hr, normalized to 1.00 (DMSO 1.18)): 1.05
- Hemoglobin Saturation ([2]; incubation 2 hr, normalized to 1.00 (DMSO 1.18)): 1.00
- Hemoglobin Saturation ([2]; incubation 3 hr, normalized to 1.00 (DMSO 1.30)): 1.02
- Net % of Sickled Cells (Human SCD cells; 0 min in hypoxic conditions (DMSO 7)): 10%
- % Protection (Human SCD cells; 2 min in hypoxic conditions): −15%
- Net % of Sickled Cells (Human SCD cells; 2 min in hypoxic conditions (DMSO 41)): 47%
- % Protection (Human SCD cells; 5 min in hypoxic conditions): 14%
- Net % of Sickled Cells (Human SCD cells; 5 min in hypoxic conditions (DMSO 57)): 49%
- % Protection (Human SCD cells; 10 min in hypoxic conditions): 11%
- Net % of Sickled Cells (Human SCD cells; 10 min in hypoxic conditions (DMSO 61)): 54%
- % Protection (Human SCD cells; 15 min in hypoxic conditions): 16%
- Net % of Sickled Cells (Human SCD cells; 15 min in hypoxic conditions (DMSO 68)): 57%
- Net % of Sickled Cells (Human SCD cells; 20 min in hypoxic conditions (DMSO 71)): 60%
- % Protection (Human SCD cells; 20 min in hypoxic conditions (last time point)): 15%
- percent protection (maximum) (Human SCD cells; severe hypoxic conditions of 2% oxygen): up to 16%
- mean percentage change in 2,3-DPG blood levels (2,3-DPG blood levels; SCD 300 mg QD, Day 1, 0 h after first daily dose): 0%
- mean percentage change in 2,3-DPG blood levels (2,3-DPG blood levels; SCD 300 mg QD, Day 1, 24 h after first daily dose): −23%
- mean percentage change in 2,3-DPG blood levels (2,3-DPG blood levels; SCD 300 mg QD, Day 14, 0 h after first daily dose): −25%
- mean percentage change in 2,3-DPG blood levels (2,3-DPG blood levels; SCD 300 mg QD, Day 14, 6 h after first daily dose): −29%
- mean percentage change in 2,3-DPG blood levels (2,3-DPG blood levels; SCD 300 mg QD, Day 14, 24 h after first daily dose): −29%
- mean percentage change in 2,3-DPG blood levels (2,3-DPG blood levels; SCD 300 mg QD, Day 14, 48 h after first daily dose): −22%
- mean percentage change in 2,3-DPG blood levels (2,3-DPG blood levels; SCD single 700 mg, 0 h after dose): 0%
- mean percentage change in 2,3-DPG blood levels (2,3-DPG blood levels; SCD single 700 mg, 6 h after dose): −16%
- mean percentage change in 2,3-DPG blood levels (2,3-DPG blood levels; SCD single 700 mg, 24 h after dose): −31%
- mean percentage change in 2,3-DPG blood levels (2,3-DPG blood levels; SCD single 700 mg, 48 h after dose): −21%
- mean percentage change in 2,3-DPG blood levels (2,3-DPG blood levels; SCD single 700 mg, 72 h after dose): −8%
- lag of maximum decrease in blood 2,3-DPG behind maximum plasma concentration (2,3-DPG blood levels; SCD single 700 mg, FIG. 54B): about 24 hours
- decrease in 2,3-DPG blood concentrations (2,3-DPG blood levels; SCD, 24 hours after single 700-mg dose, FIG. 46A): 26%
